Where “and” joins values, the source holds several entries; their conditions need not be identical. Identical values can stand only once. Entries after “also recorded” stand apart in the source; their conditions may differ. Like-named read-outs stand apart in the source and are kept apart here. Where a SMILES comes first, the peptide text is derived from it. The star is where a group is joined. Cbz = O=C(OCc1ccccc1)*; CH2F = FC*
How the values were obtained:
[1] = system: HeLa cells; conditions: for cell survival: cells pretreated with antioxidant 3 hours, washed, post-treated with 100 μM Au1.4MS 48 hours
Procedure: A) untreated cells. B) cells treated with Au1.4MS for 48 hours. C) cells pretreated with antioxidant/reducing agent for 3 hours, washed and post-treated with Au1.4MS for 48 hours. D) Au1.4MS pre-treated with antioxidant/reducing agent for 3 hours, mixture added to cells for 48 hours. E) cells pre-treated with antioxidant/reducing agent for 3 hours, then added Au1.4MS and incubated for 48 hours. F) Antioxidant/reducing agent mixed with Au1.4MS and mixture immediately added to cells and incubated for 48 hours. G) cells incubated with antioxidant/reducing agent for 48 hours.
HeLa cells were plated in 96-well microtiter plates at initial densities of 2,000 in 100 μL and were incubated for 72 hours before adding reagents. Fresh medium containing nanoparticles and/or antioxidants (reducing agents) was added to each well and cells were incubated for another 48 hours. […] Antioxidants/Reducing agents were freshly prepared by dissolving the powders in H2O to 200 mM and further diluted in fresh cell culture medium to working concentration.

[2] = system: HeLa cells; test: Flow cytometric determination of oxidative stress (CM-H2DCFDA); assay type: cell-based, human
Procedure: Applicant also studied the oxidative stress and mitochondrial damage induced by Au1.4MS nanoparticles. […] Applicant used 0.3% H2O2 as a positive control.
Flow cytometric determination of oxidative stress. HeLa cells were plated in 6-well plates at initial densities of 40,000 in 2 mL grown for 72 hours. Fresh medium containing nanoparticles (100 μM Au1.4MS, 1000 μM Au1.1GSH and Au15MS) was added to the cells and incubated for 0, 6, 12, 18, 24, 48 hours. All cell-material combinations were set up in triplicates. After the AuNP incubation, cells were trypsinized and rinsed with PBS. After rinsing cells were suspended in a buffer containing 5-(and-6)-chloromethyl-2′7′-dichlorodihydrofluorescein diacetate acetyl ester (CM-H2DCFDA) (Molecuar Probes/Invitrogen). Cells were incubated for 30 minutes at 37° C. as described by the manufacturer. Shortly, 50 μg CM-H2DCFDA powder was dissolved in 100 μL ethanol as stock solution and was kept in −20° C. For cell assays the stock solution was freshly diluted in PBS to a final working concentration of 2.5 μM. Cells incubated with 0.3% H2O2 for 30 minutes served as positive control. 20,000 cells were analysed using FACSCalibur or FACSCanto flow cytometers and CELL-Quest software (Becton-Dickinson).

[3] = system: HeLa cells; test: Inhibition of apoptosis by caspase inhibitor Z-VAD-fmk (cell survival); assay type: cell-based, human
Procedure: Apoptosis is predominantly caspase-mediated and can be blocked by Z-VAD-fmk whereas necrosis cannot.
Inhibition of apoptosis. HeLa cells were plated in 96-well microtiter plates at initial densities of 2,000 in 100 μL and were incubated for 72 hours before adding reagents. Cells were left untreated or were pre-treated with the caspase inhibitor Z-VAD-fmk for 3 hours (BACHEM N1510). A stock solution of 100 mM Z-VAD-fmk in DMSO was prepared and kept at −20° C. Working solution was freshly prepared by diluting the stock solution in fresh cell culture medium.

[4] = system: caspase 3/7; test: Fluorogenic caspase activity determination (Apo-ONE caspase-3/7 assay); assay type: cell-based, human
Procedure: To confirm that the cells underwent necrosis instead of apoptosis applicant measured the caspase 3/7 activity (FIG. 4) using the fluorogenic substrate rhodamine 110 bis-(N-CBZ-L-aspartyl-L-glutamyl-L-valyl-aspartic acid amide), Z-DEVD-R110. Caspase 3/7 enzymes cleave carboxy-terminal to the aspartate in the DEVD peptide thus converting the substrate into fluorescent rhodamine. […] Thereafter caspase 3/7 activity declined until the end of the experiment at 48 hours.
Fluorogenic caspase activity determination. […] Cells were rinsed and 30 μL of medium containing 50 μM Au1.4MS was added. Untreated cells served as negative control and cells treated with 0.2 μM staurosporine served as a positive control. Apoptosis was measured using the fluorogenic caspase substrate, Apo-ONE® homogeneous caspase-3/7 assay (Promega) as described by the manufacturer. Briefly, Apo-ONE® stock solution (100fold working concentration) was […] in Apo-One® buffer and 30 μL of this was added to each well and incubated at 23° C. for 3 hours. 50 μL of the clear supernatant was transferred to a black microtiter plate and measured using a Fluorostar plate fluorometer (BMG Labtech, Offenburg, Germany) at excitation wavelength 485 nm and emission wavelength 520 nm.

[5] = system: HeLa cells; test: Cell cycle and DNA content measurement using flow cytometry (propidium iodide); assay type: cell-based, human
Procedure: The protein p53 controls both the G2/M and the G1 cell cycle checkpoints and mediates reversible growth arrest in apoptotic fibroblasts (cf. M. Agarwal, A. Agarwal, W. Taylor, G. Stark, Proc Natl Acad Sci USA 1995, 92, 8493). To gain insight into the cell cycle progression in the context of Au1.4MS cytotoxicity, applicant measured the cellular DNA content and mitotic index of HeLa cells. […] Cells staining intermediary reside in S phase. When the HeLa cells were treated with staurosporine (curve 2) to trigger apoptosis the relative proportion of cells in G2 phase increased to 50% indicating a G2/M block of the cells. Together with the sub G1 peak and the low fluorescent peak indicating DNA fragments this pattern was typical of apoptosis. […] This is further corroborated by the fact that caspase activation, which is likewise a late event in apoptosis, but not in necrosis, was low in Au1.4MS treated cells and furthermore, that caspase inhibition by Z-VADfmk enhanced cell viability in staurosporine treated (apoptotic) cells, but not in Au1.4MS treated (secondary necrotic) cells (FIG. 4, 5).
Cell cycle and DNA content measurement using flow cytometry. HeLa cells were plated in 6-well plates and incubated for 72 hours before adding nanoparticles. […] 20,000 cells were analysed using FACSCalibur or FACSCanto flow cytometers and CELL-Quest software (Becton-Dickinson).

## N[C@@H](CCC(=O)N[C@@H](CS)C(=O)NCC(=O)O)C(=O)O [GSH, glutathione]
[1]
  inhibition of the cytotoxicity of 100 μM Au1.4MS: partially inhibit
[1]; NAC 3 mM, others 1 mM
  cell survival: 15%

## OO [H2O2]
[2]; 0.3% for 30 minutes, positive control
  oxidative stress (intracellular ROS, CM-H2DCFDA fluorescence): strong oxidative stress; also recorded: strong ROS generation

## CC(=O)N[C@@H](CS)C(=O)O [NAC, N-acetylcysteine]
[1]
  inhibition of the cytotoxicity of 100 μM Au1.4MS: partially inhibit
[1]; NAC 3 mM, others 1 mM
  cell survival: 7%

## O=S(=O)([O-])c1cccc(P(c2ccccc2)c2ccccc2)c1.[Na+] [TPPMS, triphenylphosphine monosulfonate]
[2]; ligand alone, not shown
  increase in intracellular fluorescence (ROS): did not cause an increase in intracellular fluorescence
[1]; HeLa, 48 hours, NAC 3 mM, others 1 mM
  inhibition of the cytotoxicity of 100 μM Au1.4MS: partially inhibit
[1]; NAC 3 mM, others 1 mM
  cell survival: 11%

## COC(=O)C[C@H](NC(=O)[C@H](C)NC(=O)[C@@H](NC(=O)OCc1ccccc1)C(C)C)C(=O)CF [Z-VAD-fmk] (Cbz-Val-Ala-Asp(OMe)-CH2F)
[3]; 32 μM Z-VAD-fmk, 48 hours
  survival of staurosporin-treated HeLa cells after adding Z-VAD-fmk: 84% and 83%
[3]; 500 μM Z-VAD-fmk, 48 hours
  survival of staurosporin-treated HeLa cells after adding Z-VAD-fmk: 90%
[3]; HeLa cells
  effect of Z-VAD-fmk on survival of Au1.4MS treated cells: did not increase the survival; also recorded: did not increase cell survival

## O=C1O[C@H]([C@@H](O)CO)C(O)=C1O [ascorbic acid]
[1]; NAC 3 mM, others 1 mM
  cell survival: 6%

## CN[C@@H]1C[C@H]2O[C@@](C)([C@@H]1OC)n1c3ccccc3c3c4c(c5c6ccccc6n2c5c31)C(=O)NC4 [staurosporine]
[4]; 0.2 μM staurosporine or 50 μM Au1.4MS
  incubation time of peak caspase 3/7 activity: 12 h
[4]; 0.2 μM staurosporine, HeLa
  Caspase 3/7 activity increase: 6.5 fold
[4]; 0.2 μM staurosporine, within 6 hours
  intracellular caspase 3/7 activity increase over background: 6 fold
[3]; staurosporine alone, 48 hours
  cell survival: 47%
[5]; propidium iodide flow cytometry, 100 μM Au1.4MS
  DNA content / cell cycle pattern: hypodiploid peak in DNA content typical of G2/M arrest and apoptosis
[5]; staurosporine treated HeLa cells
  relative proportion of cells in G2 phase: 50%

Reference: US20110300532A1, “CONTROL OF THE TOXICITY OF GOLD NANOPARTICLES” (priority 2009, published 2011)
